For one compound, Solubility results are on record in patent publication US6752929B1, “Methods of separating FTC isomers and derivatives thereof” (Johnson Matthey Pharmaceutical Materials, Inc., priority 1999, dated 2004).

The nature of the data set: Solubility of cis-FTC Ester in various solvent systems. Particulars: 100% ethyl acetate, 20° C. The format is physicochemical. As to the method:
Therefore, the solubility of the FTC ester in several solvent systems was determined.

In turn, `CCCC(=O)OC[C@@H]1O[C@H](n2cc(F)c(N)nc2=O)CS1` (relative stereo) [cis-FTC Ester, cis-{5-(4-amino-5-fluoro-2-oxo-1(2H)-pyrimidinyl)-1,3-oxathiolan-2-yl}methyl butanoate] gave a Solubility of 3.03%??.
